The record followed here is patent US20100150887A1, “Tissue Progenitor Cells That Overexpress ERG” (priority 2007, published 2010).

The subject of the series is HERG overexpressing cells. Description: Dofetilide responsiveness of action potentials. The settings on record: action potential after 1, 2 or 3 minute treatment (FIGS. 3A-D).

Experimental: AP is shown with-out DOF (FIG. 3A), or after 1 minute (FIG. 3B), 2 minute (FIG. 3C), or 3 minute treatments (FIG. 3D).

Take `CN(CCOc1ccc(NS(C)(=O)=O)cc1)CCc1ccc(NS(C)(=O)=O)cc1` [dofetilide, Dofetilide]: the “sensitivity to the effects of dofetilide” value is given as “sensitive”.
